The numbers were not newly measured in US12465047B2, “Preparation method for L-glufosinate-ammonium powder” (ZHEJIANG UNIVERSITY OF TECHNOLOGY, priority 2020, dated 2025), which cites them from elsewhere.

For this series the following is noted: stated as the reason for adjusting pH to 2-2.5 in step (4).

`CP(=O)(O)CC[C@H](N)C(=O)O.N` [L-glufosinate ammonium]: the isoelectric point is 2.66 pH.
